Drawing on PubChem BioAssay (NCI), this text covers GI50 and TGI for nine compounds.

Where “and” joins values, the source holds several entries; their conditions need not be identical. Equal values may be shown once.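 Compound exposure: 48 hours, 5 concentrations, 96-well plates. The concentration for 50% growth inhibition is given as GI50. TGI marks complete inhibition of growth.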

What all share (test): DTP human tumour cell line panel, 48 h
The test system of experiment [1] is A549 NSCLC.
Experiment [2] relates to HCT-116 colon.
The subject of experiment [3] is LOX IMVI melanoma.
Experiment [4] has as its system SK-MEL-28 melanoma.
Experiment [5] deals with SK-MEL-5 melanoma.
In experiment [6] the test system is SK-OV-3 ovarian.
Experiment [7] concerns SN12C renal.
In experiment [8] the test system is SNB-75 CNS.
Experiment [9] concerns TK-10 renal.
Experiment [10] has as its system UACC-62 melanoma.

For the compound `CCCCCCCC[N+](C)(CCCCCCCC)CCCCCCCC`, the GI50 is 1.36 µM in experiment [1]; 0.272 µM in experiment [2]; 0.247 µM in [3]; 0.528 µM in experiment [4]; 0.178 µM in experiment [5]; 0.468 µM in experiment [6]. For the same compound, the GI50 in experiment [7] is 0.337 µM; in [8], 0.489 µM; in experiment [9], 0.352 µM; in [10], 0.302 µM. The TGI came out at 3.08 µM in experiment [1]; 1.24 µM in [2]; 0.709 µM in experiment [3]; 1.79 µM in experiment [4]; 0.344 µM in experiment [5]; 1.71 µM in experiment [6]. For the same compound, the total growth inhibition concentration (TGI) in experiment [7] came out at 1.24 µM; in experiment [8] it was 1.42 µM; in [9], 1.19 µM; in [10], 1.32 µM.

Take `CC(C)(C)c1ccc(C(O)c2ccc(C(C)(C)C)cc2)cc1`: the TGI in experiment [1] turned out to be 27.2 µM; in [2], 24.5 µM; in [3], 30.8 µM; in experiment [4], 30.8 µM; in [5], 30.4 µM; in experiment [6], 27.8 µM. The TGI in [7] stood at 25.8 µM; in experiment [8], 33.9 µM; in experiment [9], 35.6 µM; in experiment [10], 30.2 µM.

For the compound `O=C(Nc1c(O)[nH]c(=S)[nH]c1=O)c1ccc2ccccc2n1`, the TGI in experiment [1], in experiment [2], in experiment [3], in [4], in [5] and in experiment [6] was more than 100 µM in each case. Besides, the TGI in experiment [7], in experiment [8], in [9] and in experiment [10] was more than 100 µM in each case.

With `COc1ccc([N+](=O)[O-])c(S(=O)(=O)c2ccc(Cl)cc2)n1`, the GI50 in [1] was 18.5 µM; in experiment [2], 2.9 µM; in experiment [3], 1.98 µM; in [4], 3.57 µM; in [5], 12 µM; in [6], 15.1 µM. The GI50 in experiment [7] was 3.82 µM; in experiment [8], 11 µM; in experiment [9], 3.57 µM; in [10], 3.56 µM. Also, the TGI in [1] was determined as 41.9 µM; in experiment [2] it was 9.33 µM; in experiment [3] it was 4.19 µM; in [4], 14.2 µM; in experiment [5], 24.9 µM; in [6], 31.9 µM. Moreover, the TGI in experiment [7] was determined as 16.8 µM; in experiment [8], 23.6 µM; in [9], 11.7 µM; in [10] it was 13.3 µM.

In the case of `CCCc1nc2c(C)cc(-c3nc4ccccc4n3C)cc2n1Cc1ccc(-c2ccccc2C(=O)O)cc1`, the GI50 in experiment [1] is 22.8 µM; in experiment [2], 43.4 µM; in experiment [3], 23.2 µM; in experiment [4], 25.7 µM; in experiment [5], 25.8 µM; in experiment [6], more than 100 µM. Further, the GI50 is 33.3 µM in [7], 56 µM in experiment [8], 55.8 µM in experiment [9] and 22.4 µM in experiment [10]. Further, the TGI in experiment [1], in experiment [2], in experiment [3], in experiment [4], in experiment [5] and in experiment [6] was more than 100 µM in each case. The TGI in experiment [7], in experiment [8], in [9] and in [10] was more than 100 µM in each case.

For `NCCNC(=S)S`, the TGI in experiment [1], in experiment [2], in [3], in [4], in [5] and in experiment [6] was more than 100 µM in each case. Besides, the TGI in experiment [7], in [8], in [9] and in experiment [10] was more than 100 µM each time.

Consider `Cc1[nH]c(=O)[nH]c(=O)c1CO`, for which the GI50 in experiment [1], in experiment [2], in experiment [3], in [4], in [5] and in experiment [6] was more than 100 µM throughout. Besides, the GI50 in experiment [7], in experiment [8], in [9] and in experiment [10] was more than 100 µM each time. In addition, the TGI in experiment [1], in experiment [2], in [3], in experiment [4], in experiment [5] and in experiment [6] was more than 100 µM in each case. Moreover, the concentration for total growth inhibition (TGI) in [7], in [8], in [9] and in [10] was more than 100 µM in each case.

Regarding `NC1=N/C(=C2/CCNC(=O)c3[nH]c(Br)cc32)C(=O)N1`, the TGI in experiment [1] is more than 100 µM; in [2], more than 100 µM; in experiment [3] it was more than 62.1 µM; in [4], more than 100 µM; in experiment [5], more than 100 µM; in [6], more than 100 µM. Further, the TGI in experiment [7] was more than 100 µM; in experiment [8] it was more than 91.5 µM; in [9], more than 54.9 µM; in experiment [10], more than 100 µM. The GI50 was 19.7 µM and 40.6 µM in [5]; 7.66 µM and 16.1 µM in experiment [6].

In the case of `COc1ccc2c(c1)CCC1C2CC[C@]2(C)/C(=N/OC(=O)Cc3ccccc3)CCC12` (some centres not stated), the GI50 in experiment [1] is 19.3 µM; in experiment [2] it was 13.4 µM; in [3], 18.5 µM; in experiment [4], 24.1 µM; in experiment [5] it was 12.5 µM; in experiment [6] it was 28.7 µM. Also, the GI50 in experiment [7] is 20.6 µM; in experiment [8] it was 19.9 µM; in experiment [9], 37.7 µM; in [10], 15.3 µM. Also, the TGI is 42.7 µM in [1]; 26.2 µM in [2]; 37.2 µM in [3]; 78.1 µM in [4]; 29.5 µM in experiment [5]; 72.1 µM in experiment [6]. Moreover, the TGI in experiment [7] is 43.6 µM; in experiment [8], 47.7 µM; in experiment [9] it was 97.1 µM; in [10], 30.9 µM.
